Each structure is given as a SMILES string. Entries after “also recorded” stand apart in the source; their conditions may differ.

Results on 16 molecules are retold here after paper PMC6017705, “Discovery of N-(Naphtho[1,2-b]Furan-5-Yl) Benzenesulfonamides as Novel Selective Inhibitors of Triple-Negative Breast Cancer (TNBC)” (Molecules : A Journal of Synthetic Chemistry and Natural …, 2018).

In assay [1] the test system is TNBC cell lines. Description: Cell viability assay, different TNBC cell lines. It is filed as cell-based, human. The conditions noted are these: for IC50: Homo sapiens. The protocol:
(§1) Four human TNBC cell lines (MDA-MB-231, MDA-MB-453, SUM-159, and BT-20), a non-TNBC breast cancer cell line (MCF-7) and a normal mammary epithelial cell line (MCF-10A) were cultured with DMEM (phenol free) supplemented with 2.5% CS-FBS and 1% L-Glu. 1.2 × 10^3 of cells were seeded into 384-well microplates and maintained for 24 h in an incubator at 37 °C in a 5% CO2, saturated humidified atmosphere. Different compounds were added into cells with 9 concentrations from 0.156 to 40 μM for 72 h. […] Then CCK-8 solution was added into cells and incubated for another 4 h. Absorbance was measured with a Microplate Reader at 450/600 nm. The IC50 values of the compounds on TNBC cell lines were derived using GraphPad Prism 5.0 (GraphPad Software, Inc., La Jolla, CA, USA).

Assay [2] concerns BT-20. The experiment in a line: Cell viability assay (CCK-8), BT-20. It is filed as cell-based. Particulars: Homo sapiens, TNBC cell line, CCK-8, 72 h, 0.156 to 40 μM. The protocol:
as §1

Assay [3] has as its system MDA-MB-231. The experiment in a line: Cell viability assay (CCK-8), MDA-MB-231. Type of assay: cell-based, human. The conditions noted are these: for inhibition at 5 µg/mL: MDA-MB-231; for IC50: TNBC cell line, CCK-8, 72 h, 0.156 to 40 μM. The protocol:
as §1, with “Different compounds were added into cells with 9 concentrations from 0.156 to 40 μM for 72 h.” left out

For assay [4], the system named is MDA-MB-453. The experiment in a line: Cell viability assay (CCK-8), MDA-MB-453. Particulars: Homo sapiens, TNBC cell line, CCK-8, 72 h, 0.156 to 40 μM. Type of assay: cell-based. The protocol:
as §1

The subject of assay [5] is MCF-7. Description: Cell viability assay (CCK-8), MCF-7. It is filed as cell-based, human. Particulars: for IC50 / inhibition at 5 µg/mL: Homo sapiens; for IC50: MCF7, 72 h, non-TNBC breast cancer cell line, CCK-8, 72 h; for inhibition at 5 µg/mL: MCF7. The protocol:
as §1, with “Different compounds were added into cells with 9 concentrations from 0.156 to 40 μM for 72 h.” left out

Assay [6] relates to SUM-159. The experiment in a line: Cell viability assay (CCK-8), SUM-159. Particulars: for inhibition at 5 µg/mL: SUM159; for IC50: TNBC cell line, CCK-8, 72 h, 0.156 to 40 μM. Type of assay: cell-based, human. The protocol: as §1, with “Different compounds were added into cells with 9 concentrations from 0.156 to 40 μM for 72 h.” left out
The subject of assay [7] is MCF-10A. The experiment in a line: Cell viability assay (CCK-8), MCF-10A. It is filed as cell-based, human. The conditions noted are these: for IC50: Homo sapiens, MCF-10A, normal mammary epithelial cell line, CCK-8, 72 h. The protocol:
as §1

Assay [8] relates to MDA-MB-436. The experiment in a line: Cell viability assay, MDA-MB-436. The conditions noted are these: Homo sapiens, TNBC cell line. Type of assay: cell-based. The protocol: In addition to three TNBC cell lines (MDA-MB-231, MDA-MB-436, and SUM-159) and the breast cancer cell line MCF-7, we employed the normal mammary epithelial cell line MCF-10A, which was used for testing the compounds for their effects on normal breast cells (Table 6).
as §1

The test system of assay [9] is signal transducer and activator of transcription 3 (STAT3). On the set-up: method as in ref 21, 22 = [21]; 21. Tweardy D.J. Huang X. Kasembeli M.M. Stat3 Inhibitors W.O. Patent 2009149192 A1 10 12 2009 || [22]; 22. Tweardy D.J. Kasembeli M.M. Xu M.X. Eckols T.K. Methods and Compositions for Treatment of Muscle Wasting, Muscle Weakness, and/or Cachexia Using Inhibitors of Stat3 W.O. Patent 2015010107 A1 22 1. The conditions noted are these: antitumor agent; cited from earlier work.

Assay [10] deals with heme detoxification protein (HDP). Also noted: method as in ref 20 = [20]; 20. Rathore D. Jani D. Nagarkatti R. HDP (Heme Detoxification Protein) Involved in Hemozoin Formation in Plasmodium and Theileria as an Anti-protozoal Target, and High-throughput Screening for Antimal. The conditions noted are these: cited from earlier work.

By IC50 is commonly meant the concentration that gives 50% inhibition. A higher IC50 goes with weaker potency. The inhibition is the drop in the measured response relative to a control, in per cent. A higher inhibition goes with strong suppression. In the case of `CCOC(=O)c1c(C)oc2c1cc(NS(=O)(=O)c1ccc(OC)cc1)c1ccccc12` [Compound 2-8], the half-inhibitory concentration (IC50) in assay [1] is 2 to 3 µM; in assay [2] it was 10.1 µM; in [3] (Homo sapiens, MDA-MB-231, 72 h) it was 2.96 µM; in [4] it was 3.09 µM; in [5], more than 40 µM; in [6] (Homo sapiens, SUM159, 72 h), 2.5 µM. The figures for the half-maximal inhibitory concentration (IC50) in assay [7] and in [8] were more than 40 µM and 2.8 µM, respectively. Further, the figures for the inhibition at 5 µg/mL in [3] (Homo sapiens) and in assay [6] (Homo sapiens) were 62.9% and 61.8%, respectively. Besides, the “inhibitory effect on MCF-7 (in words)” value in assay [5] is on record as “no inhibitory effect; also recorded: no inhibitory activity”. The “inhibitory effect on MCF-10A (in words)” value in assay [7] is listed as “no inhibitory activity”.
In the case of `COC(=O)c1c(C)oc2c1cc(NS(=O)(=O)c1ccc(OC)cc1)c1ccccc12` [Compound 2-5], the IC50 in [1] was 2 to 3 µM; in assay [2], more than 40 µM; in assay [3] (Homo sapiens, MDA-MB-231, 72 h), 3.12 µM; in assay [4], 2.95 µM; in [5], more than 40 µM; in assay [6] (Homo sapiens, SUM159, 72 h), 2.91 µM. The concentration for half-maximal inhibition (IC50) in assay [7] was more than 40 µM; in assay [8], 1.99 µM. The inhibition at 5 µg/mL in assay [3] (Homo sapiens) is 31%; in assay [6] (Homo sapiens), 56.8%. Moreover, the “inhibitory effect on MCF-7 (in words)” value in assay [5] is “no inhibitory effect; also recorded: no inhibitory activity”. The “inhibitory effect on MCF-10A (in words)” value in assay [7] was “no inhibitory activity”.
Regarding `COc1ccc(S(=O)(=O)Nc2cc(Cl)c(O)c3ccccc23)cc1` [Compound 2-9], the IC50 was more than 40 µM in assay [2]; 6.22 µM in assay [3] (Homo sapiens, MDA-MB-231, 72 h); 4.61 µM in assay [4]; more than 40 µM in assay [5]; 18.1 µM in [6] (Homo sapiens, SUM159, 72 h). For the same molecule, the “inhibition of STAT3 (in words)” value in [9] is “inhibition”.
Consider `CCOc1ccc(S(=O)(=O)Nc2cc3c(C(C)=O)c(C)oc3c3ccccc23)cc1` [Compound 3-17], for which the results for the inhibition at 5 µg/mL in assay [3] (Homo sapiens), in [5] and in [6] (Homo sapiens) were 68.6%, 40.5% and 61%, respectively. The IC50 in [3] (Homo sapiens, MDA-MB-231, 72 h) was 1.77 µM; in assay [6] (Homo sapiens, SUM159, 72 h), 1.94 µM; in [7] it was 0.66 µM; in assay [8] it was approximately 0.01 µM.
As for `CCOC(=O)c1c(C)oc2c1cc(NS(=O)(=O)c1ccc(OCC)cc1)c1ccccc12` [Compound 3-37], the results for the inhibition at 5 µg/mL in assay [3] (Homo sapiens), in assay [5] and in assay [6] (Homo sapiens) were 59.7%, 42.5% and 66.8%, respectively. Moreover, the IC50 in assay [3] (Homo sapiens, MDA-MB-231, 72 h) is 5.49 µM; in [6] (Homo sapiens, SUM159, 72 h), 4.09 µM; in assay [7], more than 40 µM; in [8], 1.41 µM.
As for `COc1ccc(S(=O)(=O)Nc2cc(SCC(=O)O)c(O)c3ccccc23)cc1` [Compound C10], the 50% inhibitory concentration (IC50) in assay [2] is 10.6 µM; in [4], 2.3 µM.
Regarding `CC(C)c1ccc(S(=O)(=O)Nc2cc(SCC(=O)O)c(O)c3ccccc23)cc1` [Compound 2-7], the IC50 is more than 40 µM in assay [2]; 3.95 µM in assay [3] (Homo sapiens, MDA-MB-231, 72 h); 3.65 µM in assay [4]; more than 40 µM in [5]; more than 40 µM in [6] (Homo sapiens, SUM159, 72 h).
As to `Cc1ccc(S(=O)(=O)Nc2cc(SCC(=O)O)c(O)c3ccccc23)cc1` [Compound 2-6], the 50% inhibitory concentration (IC50) in [2] was 25 µM; in assay [3] (Homo sapiens, MDA-MB-231, 72 h) it was 4.97 µM; in assay [4] it was 3.36 µM; in assay [5], more than 40 µM; in [6] (Homo sapiens, SUM159, 72 h), 19.2 µM.
Regarding `COC(=O)c1c(C(C)(C)C)oc2c1cc(NS(=O)(=O)c1ccc(OC)cc1)c1ccccc12` [Compound 3-12], the inhibition at 5 µg/mL came to 71.4% in assay [3] (Homo sapiens), 76.3% in assay [5] and 90.4% in assay [6] (Homo sapiens). The half-maximal inhibitory concentration (IC50) in assay [3] (Homo sapiens, MDA-MB-231, 72 h) was 11.9 µM; in assay [6] (Homo sapiens, SUM159, 72 h) it was 11.5 µM; in assay [7], more than 40 µM; in assay [8], 7.13 µM.
`CCOc1ccc(S(=O)(=O)Nc2cc(Cl)c(O)c3ccccc23)cc1` [Compound 2-11]: the half-maximal inhibitory concentration (IC50) is more than 40 µM in assay [2]; 6.92 µM in assay [3] (Homo sapiens, MDA-MB-231, 72 h); 5.72 µM in assay [4]; more than 40 µM in assay [5]; more than 40 µM in assay [6] (Homo sapiens, SUM159, 72 h). In addition, the “antimalarial HDP inhibitor (in words)” value in [10] is “inhibitor”.
Consider `CCOc1ccc(S(=O)(=O)Nc2cc3c(C(=O)OC)c(C)oc3c3ccccc23)cc1` [Compound 3-9], for which the values for the inhibition at 5 µg/mL in [3] (Homo sapiens), in [5] and in [6] (Homo sapiens) were 63%, 24.3% and 60.8%, respectively. For the same molecule, the IC50 in [3] (Homo sapiens, MDA-MB-231, 72 h) was 2.68 µM; in assay [6] (Homo sapiens, SUM159, 72 h), 2.66 µM; in assay [7], more than 40 µM; in assay [8], 2.08 µM.
Take `COc1ccc(S(=O)(=O)Nc2cc3c(C(=O)O)c(C)oc3c3ccccc23)cc1` [Compound 2-5-COOH]: the “fold reduced inhibitory activity compared to the ester compound (2-5)” value in assay [1] (both TNBC cell lines (MDA-MB-231, SUM-159)) is “approximately 10 fold”. Besides, the IC50 in assay [3] (Homo sapiens, MDA-MB-231, 72 h) was more than 20 µM; in assay [3], approximately 24 µM; in assay [6] (Homo sapiens, SUM159, 72 h), more than 20 µM; in assay [6], 24.2 µM.
With `CC(=O)Oc1c(SCC(=O)O)cc(NS(=O)(=O)c2ccc(F)cc2)c2ccccc12` [Compound 2-3], the IC50 in assay [2] was more than 40 µM; in assay [3] (Homo sapiens, MDA-MB-231, 72 h), 7.99 µM; in [4] it was 8.59 µM; in assay [5], more than 40 µM; in assay [6] (Homo sapiens, SUM159, 72 h), more than 40 µM.
Take `CCCCOC(=O)c1c(C)oc2c1cc(NS(=O)(=O)c1ccc(OC)cc1)c1ccccc12` [Compound 3-3]: the inhibition at 5 µg/mL in assay [3] (Homo sapiens) was 51.1%; in [5], 29.7%; in [6] (Homo sapiens), 42.1%. The IC50 in [3] (Homo sapiens, MDA-MB-231, 72 h) was 3.25 µM; in [6] (Homo sapiens, SUM159, 72 h) it was 8.66 µM; in assay [7], more than 40 µM; in assay [8], 3.36 µM.
As to `CCc1ccc(S(=O)(=O)Nc2cc(SCC(=O)O)c(O)c3ccccc23)cc1` [Compound 2-1], the half-maximal inhibitory concentration (IC50) was determined as 13.3 µM in assay [2]; 4.36 µM in assay [3] (Homo sapiens, MDA-MB-231, 72 h); 3.19 µM in assay [4]; 14 µM in [5]; 30.8 µM in assay [6] (Homo sapiens, SUM159, 72 h).
The corresponding values for `COc1ccc(-c2oc3c(CCC(C)(C)O)c(O)cc(O)c3c(=O)c2O)cc1` [IC-163, reference compound] are more than 40 µM, more than 40 µM, more than 40 µM, more than 40 µM and more than 40 µM.
